Like-named read-outs stand apart in the source and are kept apart here.
Key:
[1] = system: HeLa (cervix adenoma cancer cell); test: WST-1 cytotoxicity, HeLa; format: cell-based, human
Procedure: (§1) Cancer and normal cell lines were purchased from ATCC and stored in liquid nitrogen. HT-29 (colon adenoma cancer), HeLa (cervix adenoma cancer cell), MDA-MB-231 (breast adenoma cancer cell), HEK-293 (embryonic kidney epithelial cell) and PNT-1A (normal prostate cells) cell lines were incubated in DMEM: F-12 and RPMI-1640, including 10% foetal bovine serum (FBS), 100 µg/mL streptomycin/100 IU/mL penicillin, at 37 °C in an incubator containing 5% CO2, 95% air in a humid atmosphere.
(§2) The cytotoxic effects of the substances were evaluated with WST-1 kits (Roche, Germany) in accordance with the manufacturer’s protocols. The cells were planted in 96-well plates (10^4 cells in each well). After incubation for 24 h, the media were discarded and the substances and 5-Fu as the control drug, at doses of 0, 2.5, 5, 10, 25, 50, 100 and 200 µM, were incubated for 24, 48 and 72 h. WST-1 reactive of 10 µL was added to all wells. Following 4-h incubation, the measurements were taken on a plate reader (Spectramax M5) at wavelengths of 450 and 630 nm. Graphs were then created and the IC50 value of each substance was calculated.

HeLa cells [2] = test: Annexin-V FITC/PI apoptosis by flow cytometry; format: cell-based, human; settings: Annexin-V FITC
Procedure: The apoptotic effect of the substances was explored with the commercial FITC Annexin-V Apoptosis Detection Kit I (BD Biosciences, New Jersey, USA) according to the manufacturer’s protocol. The cells were planted in 6-well plates (5 × 10^5 cells/well), and following 24-h incubation, sulphonamide derivative compounds at concentrations of 10–25–50 µM were administered, followed by incubation for 24 h. The cells were raised by trypsin handling and transferred into new tubes within 1X binding buffer, as 1 × 10^6 in each tube, which were incubated for 15 min at room temperature. 5 µL of fluorochrome-conjugated Annexin-V and 5 µL of propidium iodide dyes were then added. 100 µL 1X binding buffer was added to the cells, and they were then centrifuged at 1200 rpm, for 5 min. Finally, the cells were analysed in flow cytometry (BD Via, New Jersey, USA).

HeLa cells [3] = test: Intracellular free amino acids by LC-MS/MS; format: cell-based, human; settings: 25 µM, 24 h, relative to untreated group
Procedure: The intracellular free amino acid level was measured according to the Chen et al. method. HeLa cells were planted in 10 cm^2 cell culture dishes, and following 24-h treatment with sulphonamide at a dose of 25 µM, the growth medium was poured out, and the cells were swiftly washed twice with 5 mL cold PBS. Pre-cooled MeOH (−60 °C) was added, and the cells were stripped with a cell scraper. The cell suspension obtained was replaced in 15-mL conic tubes. The samples were kept in liquid nitrogen for 10 min and then dissolved on ice, which was triplicated until the cells were shredded. The samples were centrifuged at 3000 g at 4 °C, for 30 min, and the supernatants were transferred to new tubes. The amino acid level in the supernatant was measured using LC-MS/MS according to the protocol of the Jasem kit. The Jasem-free amino acid assay kit is used for studies involving the diagnosis of various hereditary metabolic disorders and the feeding of newborns with hereditary metabolic disorders. In this study, the protocol used to determine the intracellular free amino acid is as follows. […] Twenty-seven amino acids in the acquired supernatant were analysed in HPLC vials using LC-MS/MS (Shimadzu 8045, Japan). The residual pellet was lysed in 1 mL lysis buffer, protein concentration of which was detected using the BCA protein assay kit (Thermo Fisher Scientific, Waltham, MA). […]

[4] = system: PNT-1A (normal prostate cells); test: WST-1 cytotoxicity, PNT-1A; format: cell-based; settings: normal cell
Procedure: as §1, §2

[5] = system: HT-29 (colon adenoma cancer); test: WST-1 cytotoxicity, HT-29; format: cell-based, human
Procedure: as §1, §2

HeLa cells [6] = test: Intracellular pH, extracellular pH and lactate level; format: cell-based, human
Procedure: Intracellular PH was measured according to the protocol of the fluorometric intracellular pH assay kit (Sigma, Germany, MAK-150). Fluorescent BCFL-AM indicator that was able to pass through the cell membrane was used to measure pHi fluctuations in the fluorometric intracellular pH kit. BCFL-AM was utilised to measure the reductions in pHi of the cells that had been treated by various conditions. The cells were planted in black plates, as 6 × 10^4 in each well of the plate, and incubated for 24 h. The medium was replaced with BCFL-AM reagent which had been prepared in 100 µL of HBS solution (Hank’s buffer with 20 mM HEPES, 5 mM probenecid), then the cells were incubated at 37 °C in an atmosphere of 5% CO2 for 30 min (protected from light). Sulphonamide compound at doses of 0, 10, 25 and 50 µM was added to the HBS solution. In the next 5 min, the measurement was performed at wavelengths of 490 nm (excitation) and 535 nm (emission) in spectrofluorimetry (Spectramax, M5). Extracellular pH (pHe) and lactate levels were measured with commercial kit by the blood gas device (ABL90 FLEX PLUS, Radiometer, Copenhagen, Denmark) which is routinely used in the clinical biochemistry laboratory of hospital. After the application of the substance in this method, the media were analysed directly by the device.

[7] = system: HEK-293 (embryonic kidney epithelial cell); test: WST-1 cytotoxicity, HEK-293; format: cell-based; settings: normal cell
Procedure: as §1, §2

NS(=O)(=O)c1ccc(CCN=Cc2cc(Br)ccc2O)cc1 [Compound 1]
IC50 ([1]; WST-1, 24 h, mean of three experiments, read-out: IC50 HeLa 24 h): 19.9 ± 1.1 µM | IC50 ([1]; WST-1, 48 h, read-out: IC50 HeLa 48 h): 18.8 ± 1.1 µM | IC50 ([1]; WST-1, 72 h, read-out: IC50 HeLa 72 h): 11.3 ± 1.1 µM | dose from which an apoptotic effect was shown (HeLa cells [2]): ≥ 25 µM | intracellular free amino acid levels (HeLa cells [3]): decreased | IC50 ([4]; WST-1, 48 h, read-out: IC50 PNT-1A 48 h): 86.2 ± 12.1 µM | IC50 ([4]; WST-1, 72 h, read-out: IC50 PNT-1A 72 h): 197 ± 11.2 µM | IC50 ([5]; WST-1, 24 h, read-out: IC50 HT-29 24 h): 46.1 ± 5.4 µM | IC50 ([5]; WST-1, 48 h, read-out: IC50 HT-29 48 h): 43.8 ± 1.2 µM | IC50 ([5]; WST-1, 72 h, read-out: IC50 HT-29 72 h): 108 ± 34.5 µM | lactate level of media (HeLa cells [6]; HeLa cell media): significant dose-related fall | pHe (HeLa cells [6]; HeLa cell media): significant increase | pHi (HeLa cells [6]; HeLa, 0, 10, 25 and 50 µM): significant dose-related fall | IC50 ([7]; WST-1, 24 h, read-out: IC50 HEK-293 24 h): 59.7 ± 11.2 µM | IC50 ([7]; WST-1, 48 h, read-out: IC50 HEK-293 48 h): 83.6 ± 21.2 µM | IC50 ([7]; WST-1, 72 h, read-out: IC50 HEK-293 72 h): 35.8 ± 11.2 µM
